Laboratory results from patent US8110596B2, “Triprenyl phenol compound, process for production of triprenyl phenol compound, and thrombolysis enhancer” (Tokyo University of Agriculture and Technology TLO Co., Ltd., priority 2006, dated 2012).

Biological target: T1, Glu-plg (Homo sapiens, UniProt P00747)
T1 construct: 0.1 mM VLK-pNA, 50 nM Glu-plg and 50 U/ml u-PA
Assay: Plasminogen (plg) activation enhancing activity by urokinase catalysis, VLK-pNA chromogenic assay (Example 30, Table 24)
Format: biochemical
Conditions: for Maximum enhancing activity: Concentration by mole / Maximum enhancing activity: Concentration by weight: concentration at which enhancement of plasminogen activation reaches the maximum; for 10-Fold enhancing activity: Concentration by mole / 10-Fold enhancing activity: Concentration by weight: concentration giving 10-fold enhancement of plasminogen activation vs control without SMTP compound (=1); for 10-Fold enhancing activity: Concentration by mole / 10-Fold enhancing activity: Concentration by weight / plasminogen activation enhancing activity compared to orniplabin: 0.1 mM VLK-pNA, 50 nM Glu-plg, 50 U/ml u-PA, 37° C.; for Maximum enhancing activity: Multiplication factor: fold enhancement of plasminogen activation at maximum, control without SMTP compound = 1
Description: For the various triprenyl phenol compounds obtained as described above, the performance was evaluated with regard to the thrombolytic activity as the activity of promoting the plasminogen (plg) activation by urokinase catalysis.
The property of plasmin of cutting the peptide bond of a synthetic chromogenic substrate VLK-pNA (Val-Leu-Lys-p-nitroanilide) to generate p-nitroaniline (pNA), was used to measure the yellow coloration of pNA which is absorbed at 405 nm, and thereby the plasminogen activation enhancing activity of a sample is measured. An MTP-500 type microplate reader (Corona Electric Co., Ltd.) was employed as the measuring device, and measurement was performed with a 96-well round bottom microplate.
The measurement was performed under the conditions of kinetic measurement at 37° C. with dual wavelength of 405 nm (activity) to 595 nm (background), for 60 times in every minute.
The purified samples were each made into a DMSO solution or an aqueous solution of sodium salt. This solution was diluted with TBS/T (50 mM Tris-HCl, 100 mM NaCl and 0.01% Tween80, pH 7.4) to provide a sample for measurement.
Furthermore, as a blank, a reaction was performed using a reaction liquid not containing u-PA, and the value obtained therefrom was subtracted from the values obtained from the reactions described above. The absorbance was plotted against the square of time, and the slope was defined as the initial rate of reaction. A reaction solution not added with any triprenyl phenol compound was taken as the control and was compared with the samples, to determine the degree of activity of the respective compounds.
The term “concentration of 10-fold enhancing activity” indicates the concentration at which 10-fold enhancing activity is obtained in the case where the value obtained by using a reaction solution not containing any SMTP compound (control) is taken as 1. The term “maximum enhancing activity” indicates the concentration at which the enhancement of plasminogen activation by an SMTP compound reaches the maximum.

T1 sequence (P00747 20-810 limits assumed): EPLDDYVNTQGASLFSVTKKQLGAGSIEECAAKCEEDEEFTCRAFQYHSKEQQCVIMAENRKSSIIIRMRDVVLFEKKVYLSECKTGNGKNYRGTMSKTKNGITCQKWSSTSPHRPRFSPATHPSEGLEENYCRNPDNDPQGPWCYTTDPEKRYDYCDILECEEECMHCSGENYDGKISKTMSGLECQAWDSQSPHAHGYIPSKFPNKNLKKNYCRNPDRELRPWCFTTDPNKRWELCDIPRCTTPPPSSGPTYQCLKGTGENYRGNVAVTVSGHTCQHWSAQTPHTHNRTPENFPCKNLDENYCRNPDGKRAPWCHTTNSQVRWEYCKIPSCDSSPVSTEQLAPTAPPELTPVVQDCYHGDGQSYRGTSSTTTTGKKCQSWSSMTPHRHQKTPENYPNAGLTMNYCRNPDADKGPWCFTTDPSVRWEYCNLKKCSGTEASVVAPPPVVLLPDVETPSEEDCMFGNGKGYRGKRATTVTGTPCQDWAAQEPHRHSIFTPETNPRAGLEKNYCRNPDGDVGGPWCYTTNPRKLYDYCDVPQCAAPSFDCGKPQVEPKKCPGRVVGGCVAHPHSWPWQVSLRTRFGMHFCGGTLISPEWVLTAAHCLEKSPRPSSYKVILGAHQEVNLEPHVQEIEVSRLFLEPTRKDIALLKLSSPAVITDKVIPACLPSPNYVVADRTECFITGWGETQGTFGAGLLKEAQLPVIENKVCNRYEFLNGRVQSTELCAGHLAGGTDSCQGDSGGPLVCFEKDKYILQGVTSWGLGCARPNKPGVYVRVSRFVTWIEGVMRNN

SMILES	Maximum enhancing activity: Concentration by mole [µM]	Maximum enhancing activity: Concentration by weight [µg/mL]	10-Fold enhancing activity: Concentration by mole [μM]	10-Fold enhancing activity: Concentration by weight [μg/ml]	Maximum enhancing activity: Multiplication factor	plasminogen activation enhancing activity compared to orniplabin
CC(C)=CCC/C(C)=C/CC[C@]1(C)Oc2c(c(O)cc3c2CN(c2ccc(C(=O)O)cc2O)C3=O)C[C@@H]1O [Compound I-6]	290	151	131	68	65	
CC(C)=CCC/C(C)=C/CC[C@]1(C)Oc2c(c(O)cc3c2CN(c2ccc(S(=O)(=O)O)cc2)C3=O)C[C@@H]1O [Compound I-19]	300	163	137	74	60	
CC(C)=CCC/C(C)=C/CC[C@]1(C)Oc2c(c(O)cc3c2CN(c2c(O)cccc2C(=O)O)C3=O)C[C@@H]1O [Compound I-7]	290	151	173	90	37	
CC(C)=CCC/C(C)=C/CC[C@]1(C)Oc2c(c(O)cc3c2CN(c2cc(C(=O)O)ccc2O)C3=O)C[C@@H]1O [Compound I-10]	290	151	188	98	43	
CC(C)=CCC/C(C)=C/CC[C@]1(C)Oc2c(c(O)cc3c2CN(c2ccc(O)c(C(=O)O)c2)C3=O)C[C@@H]1O [Compound I-9]	120	63			8	
CC(C)=CCC/C(C)=C/CC[C@]1(C)Oc2c(c(O)cc3c2CN(c2cccc(C(=O)O)c2)C3=O)C[C@@H]1O [Compound I-3]	300	151	202	102	52	
CC(C)=CCC/C(C)=C/CC[C@]1(C)Oc2c(c(O)cc3c2CN(c2ccccc2C(=O)O)C3=O)C[C@@H]1O [Compound I-4]	200	101	133	67	51	
CC(C)=CCC/C(C)=C/CC[C@]1(C)Oc2c(c(O)cc3c2CN(CCC[C@@H](C(=O)O)N2Cc4c(cc(O)c5c4O[C@@](C)(CC/C=C(\C)CCC=C(C)C)[C@@H](O)C5)C2=O)C3=O)C[C@@H]1O [Orniplabin, reference compound]	90	78	65	56	100	
CC(C)=CCC/C(C)=C/CC[C@]1(C)Oc2c(c(O)cc3c2CN(c2cccc(C(=O)O)c2O)C3=O)C[C@@H]1O [Compound I-8]	100	52	71	37	91	equivalent or higher

Now from value to molecule:

Maximum enhancing activity: Concentration by mole [µM]	Maximum enhancing activity: Concentration by weight [µg/mL]	10-Fold enhancing activity: Concentration by mole [μM]	10-Fold enhancing activity: Concentration by weight [μg/ml]	Maximum enhancing activity: Multiplication factor	plasminogen activation enhancing activity compared to orniplabin	SMILES
402	215	230	123	29		CC(C)=CCC/C(C)=C/CC[C@]1(C)Oc2c(c(O)cc3c2CN([C@H](C(=O)O)c2cccc(O)c2)C3=O)C[C@@H]1O (racemic) [Compound I-25]
200	101	127	66	65		CC(C)=CCC/C(C)=C/CC[C@]1(C)Oc2c(c(O)cc3c2CN(c2ccc(O)cc2C(=O)O)C3=O)C[C@@H]1O [Compound I-11]
200	101	100	52	158	equivalent or higher	CC(C)=CCC/C(C)=C/CC[C@]1(C)Oc2c(c(O)cc3c2CN(c2ccc(C(=O)O)c(O)c2)C3=O)C[C@@H]1O [Compound I-5]
160	81	83	42	126	equivalent or higher	CC(C)=CCC/C(C)=C/CC[C@]1(C)Oc2c(c(O)cc3c2CN(c2ccc(C(=O)O)cc2)C3=O)C[C@@H]1O [Compound I-2]
289	150	89	46	402	equivalent or higher	CC(C)=CCC/C(C)=C/CC[C@]1(C)Oc2c(c(O)cc3c2CN([C@H](C(=O)O)c2ccccc2)C3=O)C[C@@H]1O [Compound I-20]
402	215	331	177	22		CC(C)=CCC/C(C)=C/CC[C@]1(C)Oc2c(c(O)cc3c2CN([C@@H](C(=O)O)c2ccc(O)cc2)C3=O)C[C@@H]1O [Compound I-23]
289	150	104	54	44		CC(C)=CCC/C(C)=C/CC[C@]1(C)Oc2c(c(O)cc3c2CN([C@@H](C(=O)O)c2ccccc2)C3=O)C[C@@H]1O [Compound I-21]
200	110	77	42	76	equivalent or higher	CC(C)=CCC/C(C)=C/CC[C@]1(C)Oc2c(c(O)cc3c2CN([C@@H](Cc2ccc(O)cc2)C(=O)O)C3=O)C[C@H]1O [Compound I-26]
299	160	211	113	18		CC(C)=CCC/C(C)=C/CC[C@]1(C)Oc2c(c(O)cc3c2CN([C@H](C(=O)O)c2ccc(O)cc2)C3=O)C[C@@H]1O [Compound I-22]
